These results are taken from ChEMBL document CHEMBL5528076, “Development of Selective Pyrido[2,3-d]pyrimidin-7(8H)-one-Based Mammalian STE20-Like (MST3/4) Kinase Inhibitors” (J Med Chem, 2024).

Activity calls are given as the source filed them. The rule behind the calls is not given here.

In assay [1] the target is T1, Serine/threonine-protein kinase 24 (Homo sapiens, UniProt Q9Y6E0). Kind of assay: Inhibition of MST3 (unknown origin).
Target sequence in this assay (Q9Y6E0 whole entry): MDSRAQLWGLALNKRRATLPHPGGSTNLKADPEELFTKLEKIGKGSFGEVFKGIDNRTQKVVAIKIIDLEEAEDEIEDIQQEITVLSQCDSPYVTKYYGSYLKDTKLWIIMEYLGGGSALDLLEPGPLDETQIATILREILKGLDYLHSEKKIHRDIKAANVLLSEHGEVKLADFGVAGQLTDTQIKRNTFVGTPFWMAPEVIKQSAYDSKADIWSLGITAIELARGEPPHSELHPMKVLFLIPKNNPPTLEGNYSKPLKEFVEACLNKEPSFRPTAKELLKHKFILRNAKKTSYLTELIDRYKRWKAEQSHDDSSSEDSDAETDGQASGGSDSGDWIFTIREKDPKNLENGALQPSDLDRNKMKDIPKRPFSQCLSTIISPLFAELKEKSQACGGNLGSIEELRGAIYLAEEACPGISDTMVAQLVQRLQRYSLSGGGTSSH
For assay [2], the target named is T2, Serine/threonine-protein kinase 26 (Homo sapiens, UniProt Q9P289). Kind of assay: Inhibition of MST4 (unknown origin).
Target sequence in this assay (Q9P289 whole entry): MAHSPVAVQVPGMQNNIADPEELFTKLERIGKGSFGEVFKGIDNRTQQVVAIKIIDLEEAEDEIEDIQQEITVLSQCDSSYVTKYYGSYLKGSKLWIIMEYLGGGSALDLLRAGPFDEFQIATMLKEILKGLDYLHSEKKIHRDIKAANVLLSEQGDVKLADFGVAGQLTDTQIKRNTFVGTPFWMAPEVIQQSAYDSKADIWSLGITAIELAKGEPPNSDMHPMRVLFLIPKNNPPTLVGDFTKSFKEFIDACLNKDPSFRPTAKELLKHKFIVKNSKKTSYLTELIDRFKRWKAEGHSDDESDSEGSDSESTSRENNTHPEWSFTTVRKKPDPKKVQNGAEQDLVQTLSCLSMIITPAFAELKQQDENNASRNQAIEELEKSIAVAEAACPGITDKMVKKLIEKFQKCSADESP
Assay [3] has as its target T2, Serine/threonine-protein kinase 26. Kind of assay: Binding affinity to recombinant MST4 (unknown origin) assessed as change in melting temperature by DSF analysis. On the technique in general: In DSF a fluorescence change marks the thermal transition of the protein.
Target sequence in this assay (Q9P289 2-416 limits assumed): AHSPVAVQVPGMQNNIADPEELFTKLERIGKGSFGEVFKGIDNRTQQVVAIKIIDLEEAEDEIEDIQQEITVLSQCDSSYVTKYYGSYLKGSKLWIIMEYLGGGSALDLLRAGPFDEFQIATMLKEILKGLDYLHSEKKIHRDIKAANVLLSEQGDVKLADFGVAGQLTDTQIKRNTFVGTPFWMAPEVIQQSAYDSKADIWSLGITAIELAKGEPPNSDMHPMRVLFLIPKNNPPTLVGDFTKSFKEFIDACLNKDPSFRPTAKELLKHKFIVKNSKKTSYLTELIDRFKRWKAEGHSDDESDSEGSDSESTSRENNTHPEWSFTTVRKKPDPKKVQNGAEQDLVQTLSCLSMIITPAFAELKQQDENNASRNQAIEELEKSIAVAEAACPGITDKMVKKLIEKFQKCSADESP
The target is the same in assay [4]. Kind of assay: Inhibition of MST4 (unknown origin) expressed in HEK293T cells using NanoGlo as substrate incubated for 20 hrs by NanoBRET assay. In kind it is cell-based. (In general: In BRET a luciferase serves as donor, and the signal depends on an acceptor being close.)
Target sequence in this assay (Q9P289 whole entry): as the sequence (Q9P289 whole entry) above
For assay [5], the target named is Serine/threonine-protein kinase PAK 1 (Homo sapiens) (UniProt Q13153). Kind of assay: Binding affinity to recombinant PAK1 (unknown origin) assessed as change in melting temperature by DSF analysis.
Serine/threonine-protein kinase PAK 1 (Homo sapiens), sequence (Q13153 whole entry): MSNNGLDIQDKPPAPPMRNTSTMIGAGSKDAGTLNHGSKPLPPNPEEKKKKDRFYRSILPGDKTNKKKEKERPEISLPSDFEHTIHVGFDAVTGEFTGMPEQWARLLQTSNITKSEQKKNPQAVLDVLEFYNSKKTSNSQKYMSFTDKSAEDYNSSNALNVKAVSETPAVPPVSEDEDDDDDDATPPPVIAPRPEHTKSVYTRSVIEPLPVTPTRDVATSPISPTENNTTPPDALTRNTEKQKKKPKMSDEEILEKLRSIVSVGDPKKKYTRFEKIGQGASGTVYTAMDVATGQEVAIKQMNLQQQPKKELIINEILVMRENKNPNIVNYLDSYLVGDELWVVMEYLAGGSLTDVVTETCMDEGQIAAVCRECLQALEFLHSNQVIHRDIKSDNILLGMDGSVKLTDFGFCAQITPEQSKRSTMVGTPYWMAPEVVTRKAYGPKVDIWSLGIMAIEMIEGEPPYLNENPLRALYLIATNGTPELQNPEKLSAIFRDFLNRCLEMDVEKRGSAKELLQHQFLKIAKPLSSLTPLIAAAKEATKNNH
The target in assay [6] is T3, Serine/threonine-protein kinase 4 (Homo sapiens, UniProt Q13043).
T3 sequence (Q13043 whole entry): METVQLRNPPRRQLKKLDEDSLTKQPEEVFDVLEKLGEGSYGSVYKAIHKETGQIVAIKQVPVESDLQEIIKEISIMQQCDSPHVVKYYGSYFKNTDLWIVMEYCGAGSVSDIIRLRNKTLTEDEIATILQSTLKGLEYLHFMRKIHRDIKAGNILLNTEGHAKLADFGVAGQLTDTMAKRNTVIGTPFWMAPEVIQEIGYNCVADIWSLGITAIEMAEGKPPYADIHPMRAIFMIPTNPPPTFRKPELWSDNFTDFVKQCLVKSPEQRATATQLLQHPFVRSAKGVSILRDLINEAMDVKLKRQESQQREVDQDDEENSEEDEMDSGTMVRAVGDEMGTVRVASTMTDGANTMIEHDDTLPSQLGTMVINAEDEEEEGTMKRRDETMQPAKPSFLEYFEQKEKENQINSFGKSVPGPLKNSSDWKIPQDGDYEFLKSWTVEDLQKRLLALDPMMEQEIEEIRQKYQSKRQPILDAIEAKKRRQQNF
Kind of assay: Inhibition of MST1 (unknown origin) expressed in HEK293T cells using NanoGlo as substrate incubated for 20 hrs by NanoBRET assay. In kind it is cell-based.

For assay [7], the target named is Serine/threonine-protein kinase SIK2 (Homo sapiens, UniProt Q9H0K1). Briefly: Inhibition of SIK2 (unknown origin) expressed in HEK293T cells using NanoGlo as substrate incubated for 20 hrs by NanoBRET assay. In kind it is cell-based.
Serine/threonine-protein kinase SIK2, sequence (Q9H0K1 whole entry): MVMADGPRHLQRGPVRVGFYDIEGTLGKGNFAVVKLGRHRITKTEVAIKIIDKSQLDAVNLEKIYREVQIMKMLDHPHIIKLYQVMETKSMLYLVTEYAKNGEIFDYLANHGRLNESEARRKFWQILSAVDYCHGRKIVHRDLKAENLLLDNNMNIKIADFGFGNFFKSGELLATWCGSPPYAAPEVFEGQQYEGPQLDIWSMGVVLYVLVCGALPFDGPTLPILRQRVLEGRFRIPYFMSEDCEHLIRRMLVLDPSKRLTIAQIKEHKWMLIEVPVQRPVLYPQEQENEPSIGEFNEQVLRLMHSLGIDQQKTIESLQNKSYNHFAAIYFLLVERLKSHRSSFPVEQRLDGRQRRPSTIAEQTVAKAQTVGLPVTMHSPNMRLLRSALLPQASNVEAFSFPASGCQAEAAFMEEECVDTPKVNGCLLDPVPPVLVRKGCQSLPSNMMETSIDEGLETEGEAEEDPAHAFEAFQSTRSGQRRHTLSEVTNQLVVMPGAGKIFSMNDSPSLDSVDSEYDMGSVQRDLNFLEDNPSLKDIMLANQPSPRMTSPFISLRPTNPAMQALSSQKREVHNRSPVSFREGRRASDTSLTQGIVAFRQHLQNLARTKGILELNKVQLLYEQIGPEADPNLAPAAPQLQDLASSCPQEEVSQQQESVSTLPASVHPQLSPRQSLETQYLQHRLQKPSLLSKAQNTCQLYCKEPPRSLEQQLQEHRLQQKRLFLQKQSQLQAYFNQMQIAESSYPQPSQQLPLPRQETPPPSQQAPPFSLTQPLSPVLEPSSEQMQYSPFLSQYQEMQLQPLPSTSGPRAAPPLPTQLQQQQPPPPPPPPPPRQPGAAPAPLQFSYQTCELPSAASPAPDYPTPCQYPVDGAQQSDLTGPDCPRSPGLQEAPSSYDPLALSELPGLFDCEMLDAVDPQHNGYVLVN
Assay [8] deals with T1, Serine/threonine-protein kinase 24. Kind of assay: Binding affinity to recombinant MST3 (unknown origin) assessed as change in melting temperature by DSF analysis.
Target sequence in this assay (Q9Y6E0 whole entry, looked up): as the sequence (Q9Y6E0 whole entry) above
The target of assay [9] is T4, Serine/threonine-protein kinase 3 (Homo sapiens) (UniProt Q13188).
T4 sequence (whole entry): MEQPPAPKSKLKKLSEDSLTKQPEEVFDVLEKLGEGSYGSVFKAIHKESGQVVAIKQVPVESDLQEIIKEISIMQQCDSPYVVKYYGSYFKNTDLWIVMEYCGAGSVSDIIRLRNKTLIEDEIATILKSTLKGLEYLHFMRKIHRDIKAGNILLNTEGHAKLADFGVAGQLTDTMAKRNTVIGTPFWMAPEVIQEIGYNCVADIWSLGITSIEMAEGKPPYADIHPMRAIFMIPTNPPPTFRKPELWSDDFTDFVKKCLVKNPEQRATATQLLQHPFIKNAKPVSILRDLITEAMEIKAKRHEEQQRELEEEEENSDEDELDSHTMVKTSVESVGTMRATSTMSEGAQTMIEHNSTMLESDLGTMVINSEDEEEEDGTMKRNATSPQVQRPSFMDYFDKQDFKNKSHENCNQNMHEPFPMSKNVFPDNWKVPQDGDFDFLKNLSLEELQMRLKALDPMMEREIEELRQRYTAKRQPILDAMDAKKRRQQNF
Briefly: Binding affinity to recombinant MST2 (unknown origin) assessed as change in melting temperature by DSF analysis.

The target in assay [10] is T5, Serine/threonine-protein kinase 3 (Homo sapiens, UniProt Q13188).
T5 sequence (Q13188 whole entry): T4 sequence (whole entry)
Briefly: Inhibition of MST2 (unknown origin) expressed in HEK293T cells using NanoGlo as substrate incubated for 20 hrs by NanoBRET assay. In kind it is cell-based.

Assay [11] concerns the target T1, Serine/threonine-protein kinase 24. Kind of assay: Inhibition of MST3 (unknown origin) expressed in lysed HEK293T cells using NanoGlo as substrate incubated for 20 hrs by NanoBRET assay. In kind it is cell-based.
Target sequence in this assay (Q9Y6E0 whole entry): as the sequence (Q9Y6E0 whole entry) above
Assay [12] addresses T6, Serine/threonine-protein kinase 4 (Homo sapiens) (UniProt Q13043).
T6 sequence (whole entry): T3 sequence (Q13043 whole entry)
Briefly: Binding affinity to recombinant MST1 (unknown origin) assessed as change in melting temperature by DSF analysis.

For assay [13], the system named is HCT-116. Briefly: Induction of apoptosis in human HCT-116 cells assessed as increase in fluorescence intensity at 10 uM incubated for 24 hrs by Hoechst33342 staining based analysis. In kind it is functional, cell-based.
In assay [14] the target is T1, Serine/threonine-protein kinase 24. Briefly: Inhibition of MST3 (unknown origin) expressed in intact HEK293T cells using NanoGlo as substrate incubated for 20 hrs by NanoBRET assay. In kind it is cell-based.
Target sequence in this assay (Q9Y6E0 whole entry): as the sequence (Q9Y6E0 whole entry) above
Assay [15] has as its system HCT-116. Briefly: Induction of apoptosis in human HCT-116 cells assessed as effect on cell count at 10 uM incubated for 72 hrs by Hoechst33342 staining based analysis. In kind it is functional.
The subject of assay [16] is HCT-116. Kind of assay: Antiproliferative activity against human HCT-116 cells assessed as reduction in cell viability at 10 uM incubated for 6 to 72 hrs by Hoechst33342 staining based analysis. In kind it is functional. The following applies: time 6-72 hrs.
The target of assay [17] is T1, Serine/threonine-protein kinase 24. Kind of assay: Inhibition of MST3 (unknown origin) expressed in HEK293T cells using NanoGlo as substrate incubated for 20 hrs by NanoBRET assay. In kind it is cell-based.
Target sequence in this assay (Q9Y6E0 whole entry): as the sequence (Q9Y6E0 whole entry) above
Assay [18] concerns HCT-116. Kind of assay: Induction of cell cycle arrest in human HCT-116 cells assessed as accumulation of cells at G1 phase at 10 uM incubated for 72 hrs by FUCCI based analysis. In kind it is functional.
The subject of assay [19] is HCT-116. Briefly: Induction of apoptosis in human HCT-116 cells assessed as effect on cell count at 1 uM incubated for 72 hrs by Hoechst33342 staining based analysis. In kind it is functional.
Assay [20] deals with HCT-116. Kind of assay: Antiproliferative activity against human HCT-116 cells assessed as reduction in cell viability at 10 uM incubated for 48 hrs by Hoechst33342 staining based analysis. In kind it is functional.

Consider `CCS(=O)(=O)Nc1ccc2c(c1)/C(=C(/Nc1ccc(CN3CCCCC3)cc1)c1ccccc1)C(=O)N2` [HESPERADIN], for which the IC50 (commonly the concentration that gives 50% inhibition) in assay [1] was determined as 10 nM; in assay [2] it was 6 nM.
Consider `COc1ccc(O)c(Nc2ncc3cc(-c4ccc(-c5cccc(C)n5)cc4Cl)c(=O)n(CCCCN)c3n2)c1`, for which the ΔTm (commonly the shift of the melting midpoint relative to a reference) stood at 8.3 °C in [3]; 4.5 °C in assay [5]; 11 °C in assay [8]; 5.4 °C in [9]; 3.8 °C in [12]. For the same compound, the EC50 (commonly the concentration that produces a half-maximal response) came out at 793 nM in assay [4]; 3300 nM in [6]; 543 nM in assay [7]; 3100 nM in assay [10]; 163 nM in [11].
In the case of `Cc1cccc(-c2ccc(-c3cc4cnc(Nc5ccc(C)c(O)c5)nc4n(CCCCN)c3=O)c(Cl)c2)n1`, the ΔTm was 15.9 °C in assay [3]; 9.1 °C in assay [5]; 17.5 °C in [8]; 13.2 °C in assay [9]; 8.1 °C in assay [12]. The EC50 came to 60 nM in assay [4]; 530 nM in [6]; 37 nM in assay [7]; 537 nM in [10]; 34 nM in assay [11].
As to `COc1cc(N2CCOCC2)ccc1Nc1ncc2cc(-c3ccc(-c4cccc(C)n4)cc3Cl)c(=O)n(CCCCN)c2n1`, the ΔTm was found to be 9.2 °C in assay [3]; 5 °C in assay [5]; 11 °C in assay [8]; 7.5 °C in assay [9]; 4.6 °C in assay [12]. Besides, the EC50 stood at 1200 nM in [4]; 2100 nM in [6]; 85 nM in assay [7]; 3100 nM in [10]; 115 nM in assay [11].
Regarding `Cc1cccc(-c2ccc(-c3cc4cnc(Nc5ccc(CCCO)cc5)nc4n(CCCCN)c3=O)c(Cl)c2)n1`, the ΔTm was determined as 15.3 °C in [3]; 9.1 °C in [5]; 16.7 °C in assay [8]; 13.7 °C in assay [9]; 8.7 °C in [12]. In addition, the EC50 in assay [4] is 48 nM; in [6] it was 251 nM; in [7] it was 49 nM; in [14], 20 nM; in assay [10] it was 249 nM; in assay [11], 20 nM. Besides, the outcome in the assay with HCT-116 [13] was Active.
Take `Cc1cccc(-c2ccc(-c3cc4cnc(NCCCc5ccc(N)cc5)nc4n(CCCCN)c3=O)c(Cl)c2)n1`: the ΔTm was determined as 9.7 °C in assay [3]; 6.8 °C in assay [5]; 12.2 °C in assay [8]; 7.2 °C in assay [9]; 4.9 °C in [12]. Further, the EC50 came out at 681 nM in [4]; 3400 nM in [6]; 516 nM in assay [7]; 3600 nM in assay [10]; 57 nM in assay [11].
Consider `Cc1cccc(-c2ccc(-c3cc4cnc(Nc5cc(C(F)(F)F)ccc5C)nc4n(CCCCN)c3=O)c(Cl)c2)n1`, for which the ΔTm in assay [3] is 9.5 °C; in [5], 5.9 °C; in [8] it was 13 °C; in assay [9], 10.2 °C; in assay [12], 5.8 °C. The EC50 in [4] amounted to 2200 nM; in [6], 5700 nM; in [7], 5500 nM; in assay [10] it was 5500 nM; in assay [11], 367 nM.
For `COc1cc(N2CCN(C)CC2)ccc1Nc1ncc2cc(-c3ccc(-c4cccc(C)n4)cc3Cl)c(=O)n(CCCCN)c2n1`, the ΔTm was found to be 6.7 °C in [3]; 8.8 °C in assay [5]; 13.5 °C in assay [8]; 7.4 °C in assay [9]; 4 °C in assay [12]. In addition, the EC50 in assay [4] is 38300 nM; in assay [6], more than 50000 nM; in assay [7] it was 153 nM; in assay [10], 16900 nM; in [11], 278 nM.
Take `CNc1ncc2cc(-c3ccc(-c4cccc(C)n4)cc3Cl)c(=O)n(CCCCN)c2n1`: the ΔTm in assay [3] was determined as 11.4 °C; in assay [5] it was 6.5 °C; in [8], 11.7 °C; in assay [9] it was 7.9 °C; in assay [12], 5.6 °C. For the same compound, the outcome with HCT-116 [15] and with HCT-116 [13] was Active. The EC50 in assay [4] amounted to 457 nM; in [6] it was 4100 nM; in [7], 99 nM; in [17] it was 42 nM; in assay [14], 221 nM; in [10] it was 2600 nM. In assay [11], this compound came in with an EC50 of 42 nM. Also, the outcome in the assay on HCT-116 [16] was inactive.
Regarding `CNC(=O)c1nn(C)c2c1C(C)(C)Cc1cnc(Nc3ccc(N4CCN(C)CC4)cc3)nc1-2`, the result in the assay on HCT-116 [18] was Active.
`CCOc1cc2ncc(C#N)c(Nc3ccc(OCc4ccccn4)c(Cl)c3)c2cc1NC(=O)/C=C/CN(C)C` [NERATINIB]: the IC50 in [1] and in assay [2] was 7 nM in each case.
For `CC(=O)NC1CCN(c2ncnc3[nH]cc(-c4cccc(Cl)c4)c23)CC1`, the outcome in the assay on HCT-116 [16] was inactive.
As for `Cc1cccc(-c2ccc(-c3cc4cnc(NCCCN5CCCC5=O)nc4n(CCCCN)c3=O)c(Cl)c2)n1`, the ΔTm was 7.5 °C in [3]; 3.6 °C in assay [5]; 10.6 °C in assay [8]; 2.2 °C in assay [9]; 1.1 °C in assay [12]. Besides, the EC50 was 1100 nM in assay [4]; 15100 nM in assay [6]; 1300 nM in assay [7]; 178 nM in assay [14]; 16900 nM in assay [10]; 56 nM in assay [11]. Further, in the assay on HCT-116 [16], the result was inactive. The outcome with HCT-116 [18] and with HCT-116 [19] was Active. The Activity in the assay with HCT-116 [20] is on record as 30%.
With `Cc1cccc(-c2ccc(-c3cc4cnc(NCCCN5CCOCC5)nc4n(CCCCN)c3=O)c(Cl)c2)n1`, the shift in melting temperature (ΔTm) in assay [3] came to 10.6 °C; in assay [5], 4.1 °C; in assay [8] it was 11.6 °C; in assay [9], 5.9 °C; in [12], 3.6 °C. Moreover, the outcome in the assay with HCT-116 [15] and in the assay with HCT-116 [13] was Active. The EC50 in assay [4] worked out at 115 nM; in [6], 5300 nM; in assay [7], 512 nM; in assay [14], 55 nM; in assay [10], 10200 nM; in assay [11], 27 nM. Besides, the outcome with HCT-116 [16] was inactive.
In the case of `Cc1cccc(-c2ccc(-c3cc4cnc(Nc5ccc(F)c(CO)c5)nc4n(CCCCN)c3=O)c(Cl)c2)n1`, the ΔTm amounted to 14.8 °C in [3]; 9.3 °C in assay [5]; 16.9 °C in [8]; 16 °C in [9]; 8.6 °C in [12]. The EC50 in assay [4] came to 44 nM; in assay [6], 314 nM; in assay [7], 51 nM; in assay [10], 184 nM; in assay [11] it was 10 nM.
